Results on three compounds are retold here after publication PMC7114321 (Antiviral Research, 2005).

The test system of one data set is Sindbis virus. The following applies: cited from earlier work.
Another data set is described as follows: in vitro. The following applies: African green monkey, CC50 of cell death.

≈ marks a conversion by molar mass, not a printed value.

The term CC50 denotes the concentration that lowers cell viability or growth by half. A low value points to harm at low concentration. By IC50 is commonly meant the concentration needed to halve the response being measured.

In the case of `C=CCC(=NOS(=O)(=O)O)S[C@@H]1O[C@H](CO)[C@@H](O)[C@H](O)[C@H]1O` (stereo in doubt) [Sinigrin], in the data set with Vero cells, the 50% cytotoxic concentration (CC50) was > 10000 µM and the “CC50 of cell death” value was >5000 (>10,000 μM) μg/ml.

For the compound `COc1ccc([C@@H]2CC(=O)c3c(O)cc(O)cc3O2)cc1O` [Hesperetin], the “IC50, inhibitory activity on Sindbis virus infection” value in the data set with Sindbis virus was 20.5 µg/mL (≈ 0.0678 mM). Moreover, the IC50 in the data set with Sindbis virus (read-out: IC50, inhibitory activity on Sindbis virus infection) is ~68 µM.

Regarding `O=C1/C(=C2\Nc3ccccc3C2=O)Nc2ccccc21` [Indigo], it took 917 µg/mL (≈ 3.5 mM) to reach half-maximal cytotoxicity in “in vitro” (CC50).
